From US20210228523A1, “MODULATORS OF SESTRIN-GATOR2 INTERACTION AND USES THEREOF” (Navitor Pharmaceuticals, Inc., priority 2017, published 2021)

System: Male Sprague Dawley rats
Test: Forced swimming test (FST)
Type: in vivo, rat
Details: for FST time spent immobile / decrease in FST time spent immobile vs Sal / decrease in FST time spent immobile vs Veh: Example G; for decrease in FST time spent immobile vs Sal / decrease in FST time spent immobile vs Veh: p<0.05
Procedure: Study Design. Twenty (20) male rats weighing between 175 and 200 g were randomized into 3 study groups (n=6-7/group), following a 5-day acclimation period. All rats were surgically implanted with bilateral IT cannulas in the PFC 2 weeks prior to dosing. […] Thirty minutes following the intrathecal infusions, either NV-5138 vehicle (Veh-NV, 0.5% methylcellulose/0.1% Tween-80) or NV-5138 (160 mg/kg) was administered by oral gavage. Each treatment group was assessed at the designated time following oral dosing in FST 24 hrs (day 1) LMA 48 hrs (day 2) and the NSFT 72 hrs (day 3 following a 20 hr period of fasting). LMA was measured to rule out overall changes in generally locomotor activity. The study design is presented in Table 11 with timeline of surgical procedures, test article administration and behavioral tests is provided in FIG. 20
Preparation of Test Articles. Rapamycin (Cell Signaling; #9904) was prepared in a solution of 10% DMSO (Veh-R) to a final concentration of 10 μM. R or Veh-R was administered bilaterally (0.005 nmol/0.5 μL per side) into the medial PFC via IT infusion 30 min prior to treatment with NV-5138 or Veh-NV by oral gavage. NV-5138 (lot #07) was prepared by dissolving in Veh (0.5% methylcellulose/0.1% Tween-80) at a concentration of 50 mg/mL. The dosing volume based on the weight of the animal (3.2 mL/kg) was administered by oral gavage to study animals in Groups 2 and 3.
Surgical Procedure and Administration of Rapamycin. Rats were steriotactically implanted with a guide cannula (22GA) into the medial PFC (coordinates from bregma: +3.2 AP, ±1.0 ML, -3.5 DV from dura). Surgical procedures were carried out under the anesthesia of Nembutal (i.p. 55 mg/kg). Postoperative care consisted in peri-surgical administration of carprofen (5 mg/kg) and topical triple antibiotic. After a 2-week recovery period, R (0.01 nmol in 1 μL for PFC infusion) or Veh-R was delivered at the rate of 0.25 μL/min with an injection cannula (26GA) protruding 0.5 mm beyond the guide cannula 30 min before oral administration of NV-5138 or Veh-NV.
Study Design. Forty-eight (48) male rats weighing between 175 and 200 g were randomized into 6 study groups (n=8/group), following a 5-day acclimation period. A single dose of all test articles was administered on day 0 and the behavioral tests were performed 3, 7 and 10 days later. Groups 1 and 2 were dosed on day 0 with NV-5138 (160 mg/kg by oral gavage) and Ket (10 mg/kg by i.p. injection), respectively and subjected to a FST on day 3. The rats in Group 3 and 4 received a single dose of the NV-5138 vehicle (Veh) or NV-5138 (160 mg/kg), respectively, by oral gavage on day 0. The rats in Group 5 and 6 received a single dose of the Ket vehicle (Sal) or Ket (10 mg/kg), respectively, by i.p. injection on day 0. The rats in groups 3-6 were subjected to a FST on day 7 and a NSFT on day 10. All rats in groups 3-6 were fasted the night before for 20 hours the NSFT.
Study Design. Twenty-four (24) male Sprague Dawley rats weighing between 175 and 200 g were randomized into 4 study groups (n=6/group), following a 5-day acclimation period. On study day minus 1 rats were subjected to a pre-swim. Beginning on study day 0, rats in Groups 2 received a dose of Ket (10 mg/kg) on alternate days (day 0, 2, 4, and 6) each by i.p. injection. The rats in Groups 1 received a daily dose of Veh by oral gavage for 7 days (days 0 to 6). The rats in Groups 3 and 4 received a daily dose of NV-5138 (40 or 80 mg/kg) for 7 days (days 0 to 6) each by oral gavage. All rats were subjected to the FST on day 7, 24 hrs after last dosing. On day 8, 48 hrs after last dosing, the LMA of all rats was measured in an open field. Rats were then fasted for 20 hrs and subjected to the NSFT on day 9 (72 hrs post-last dose).
Preparation of Test Articles. Ket (Sigma, cat #K1884) was dissolved in Sal at a concentration of 10 mg/mL. Injection volumes (i.p) of 1 mL/kg of Ket were administered to Group 2. […]

[1] = Ket 10 mg/kg i.p. single dose, 3 days after dose
[2] = Ket 10 mg/kg i.p. single dose, 7 days after dose
[3] = NV-5138 160 mg/kg oral single dose, 3 days after dose
[4] = NV-5138 160 mg/kg oral single dose, 7 days after dose

SMILES | FST time spent immobile [1] [s] | decrease in FST time spent immobile vs Sal [1] [%] | FST time spent immobile [2] [s] | decrease in FST time spent immobile vs Sal [2] [%] | FST immobility time (Example F, Veh-R IT infusion then NV-5138 160 mg/kg oral, 24 hrs after oral dosing) [s] | decrease in FST immobility time vs Veh-R/Veh-NV (Example F, Veh-R IT infusion then NV-5138 160 mg/kg oral, 24 hrs, p<0.0001) [%] | FST immobility time, R/NV-5138 vs Veh-R/Veh-NV (Example F, rapamycin (R, 0.01 nmol) IT infusion into PFC 30 min before NV-5138 160 mg/kg oral, 24 hrs) | FST time spent immobile [3] [s] | decrease in FST time spent immobile vs Veh [3] [%] | FST time spent immobile [4] [s] | decrease in FST time spent immobile vs Veh [4] [%] | FST (Example I, NV-5138 80 mg/kg oral daily for 7 days, day 7, 24 hrs after last dosing)
CNC1(c2ccccc2Cl)CCCCC1=O (stereo not drawn) [Ket, ketamine, reference compound] | 95.5 ± 7.8 | 31 | 95.0 ± 11.1 | 31 | – | – | – | – | – | – | – | –
CC(C)(C[C@H](N)C(=O)O)C(F)F [NV-5138] | – | – | – | – | 144 ± 15 | 46 | lack of significant effect on immobility time | 87.9 ± 9.0 | 39 | 96.0 ± 11.3 | 34 | Significant effects
